Several values for one entry are separate records, joined by “and”; a condition that tells them apart may be missing. Equal values may be shown once.
Experiment: xn = mol fraction of the nth substance listed

CCCC[n+]1ccn(C)c1.O=S(=O)([N-]S(=O)(=O)C(F)(F)F)C(F)(F)F + Nc1ccccc1
100 kPa, x2 = 0
Details	viscosity [mPa·s]
288.15 K	78.4
293.15 K	61.5
298.15 K	49.1
303.15 K	39.9
308.15 K	33.2
313.15 K	27.7
318.15 K	23.5
323.15 K	20.13
328.15 K	17.39
333.15 K	15.2

CCCCCCCCCC[n+]1ccn(C)c1.[Br-] + CCCCCCCCn1cc[n+](C)c1.[Br-] + O
298.15 K, 101 kPa
Details	electrical conductivity [S/m]
x2 = 0.001457, x1 = 0.0002702	0.7
x2 = 0.002534, x1 = 0.0004683	1.01
x2 = 0.003323, x1 = 0.0006123	1.2
x2 = 0.003985, x1 = 0.0007203	1.33
x2 = 0.00477, x1 = 0.0008642	1.45
x2 = 0.005466, x1 = 0.0009901	1.55

CCCC[n+]1ccn(C)c1.O=S(=O)([N-]S(=O)(=O)C(F)(F)F)C(F)(F)F + CCCCCCCO
Details	viscosity [mPa·s]
298 K, 100 kPa, x1 = 1	49.7

CC#N + CCCCCCCC(=O)[O-].c1c[nH+]c[nH]1
101.3 kPa, x1 = 1
Details	viscosity [mPa·s]
298.15 K	0.333
323.15 K	0.223

CCCCC[P+](CC)(CC)CC.O=S(=O)([N-]S(=O)(=O)C(F)(F)F)C(F)(F)F + O=S(=O)([N-]S(=O)(=O)C(F)(F)F)C(F)(F)F.[Li+]
101.33 kPa
Details	electrical conductivity [S/m]	viscosity [mPa·s]
300.3 K, x2 = 0.39	–	1100
324.2 K, x2 = 0.39	0.081	200
330.2 K, x2 = 0.39	0.11	150
336.3 K, x2 = 0.25	0.37	42
341.2 K, x2 = 0.25	–	34
348.2 K, x2 = 0.25	0.52	27
361.2 K, x2 = 0.39	–	37
361.3 K, x2 = 0.39	0.36	–

CCCC[P+](C)(CCCC)CCCC.COS(=O)(=O)[O-] + CN1CCCC1=O
101 kPa
Details	viscosity [mPa·s]
293.15 K, x1 = 0.8086	530
298.15 K, x1 = 0.056	7.6
298.15 K, x1 = 0.3764	80
298.15 K, x1 = 0.7129	290
298.15 K, x1 = 0.8086	370
298.15 K, x1 = 1	520
303.15 K, x1 = 0.0914	4.9
303.15 K, x1 = 0.1773	10.8
303.15 K, x1 = 0.2318	15.5
303.15 K, x1 = 0.2971	25
303.15 K, x1 = 0.8086	260
303.15 K, x1 = 0.9022	330
303.15 K, x1 = 0.9468	350
313.15 K, x1 = 0.056	1
313.15 K, x1 = 0.1773	4.5
318.15 K, x1 = 0.2318	7.1
318.15 K, x1 = 0.7129	73
318.15 K, x1 = 0.8086	112
323.15 K, x1 = 0.0914	2.5
323.15 K, x1 = 0.6014	30

CCn1cc[n+](C)c1.COCCOCCOS(=O)(=O)[O-] + O
101 kPa
Details	electrical conductivity [S/m]
298.2 K, x2 = 0.4	0.3
298.2 K, x2 = 0.6	0.51
313.2 K, x2 = 0.2	0.46
313.2 K, x2 = 0.8	1.63
328.2 K, x2 = 0.4	0.92
338.2 K, x2 = 0.2	1.05
338.2 K, x2 = 0.6	1.77
338.2 K, x2 = 0.8	2.97
343.2 K, x2 = 0.8	3.28
348.2 K, x2 = 0.2	1.36
348.2 K, x2 = 0.4	1.51
353.2 K, x2 = 0.6	2.39
353.2 K, x2 = 0.8	3.93

CCCC[n+]1ccn(C)c1.O=S(=O)([N-]S(=O)(=O)C(F)(F)F)C(F)(F)F + CN(C)c1ccccc1
100 kPa, x2 = 0
Details	viscosity [mPa·s]
288.15 K	78.4
293.15 K	61.5
298.15 K	49.1
303.15 K	39.9
308.15 K	33.2
313.15 K	27.7
318.15 K	23.5
323.15 K	20.13
328.15 K	17.39
333.15 K	15.2

CCCC[n+]1ccn(C)c1.F[P-](F)(F)(F)(F)F + CCOC(C)=O
298.15 K
Details	electrical conductivity, x2 = 0.2746 [S/m]	electrical conductivity, x2 = 0.4156 [S/m]	electrical conductivity, x2 = 0.7532 [S/m]	electrical conductivity, x2 = 0.8821 [S/m]	viscosity, x2 = 0.2746 [mPa·s]	viscosity, x2 = 0.4156 [mPa·s]	viscosity, x2 = 0.6524 [mPa·s]	viscosity, x2 = 0.7532 [mPa·s]	viscosity, x2 = 0.8821 [mPa·s]
101 kPa	0.452	0.67	1.12	0.726	60.7	27.8	–	3.33	1.43
101.3 kPa	–	–	–	–	–	–	6.22	–	–

CC[n+]1ccn(C)c1.O=S(=O)([O-])O + CC(C)[C@H](N)C(=O)O + O
viscosity [mPa·s], 100 kPa
Details	293.15 K	298.15 K	303.15 K	308.15 K	313.15 K
x2 = 0, x1 = 0.0005421	1.046	0.929	0.824	0.75	0.678
x2 = 0, x1 = 0.0009056	1.068	0.949	0.843	0.759	0.684
x2 = 0, x1 = 0.001263	1.073	0.966	0.866	0.78	0.697
x2 = 0.0003674, x1 = 0.0009053	1.09	0.958	0.851	0.767	0.691
x2 = 0.0003913, x1 = 0.0005419	1.068	0.938	0.832	0.758	0.686
x2 = 0.0003924, x1 = 0.001263	1.096	0.975	0.875	0.787	0.705
x2 = 0.0007372, x1 = 0.001262	1.117	0.983	0.882	0.794	0.711
x2 = 0.000749, x1 = 0.0009049	1.112	0.966	0.859	0.774	0.698
x2 = 0.0007642, x1 = 0.0005417	1.09	0.947	0.84	0.765	0.693
x2 = 0.001083, x1 = 0.0005415	1.108	0.954	0.847	0.771	0.699
x2 = 0.001089, x1 = 0.0009046	1.132	0.974	0.866	0.781	0.704
x2 = 0.001118, x1 = 0.001262	1.139	0.992	0.89	0.802	0.718
x2 = 0.001457, x1 = 0.001262	1.159	1	0.897	0.808	0.725
x2 = 0.001475, x1 = 0.0009042	1.155	0.983	0.874	0.788	0.711
x2 = 0.001477, x1 = 0.0005413	1.131	0.963	0.855	0.779	0.706
x2 = 0.001795, x1 = 0.0005411	1.149	0.97	0.861	0.785	0.712
x2 = 0.001812, x1 = 0.0009039	1.175	0.991	0.881	0.795	0.717
x2 = 0.001817, x1 = 0.001261	1.18	1.008	0.905	0.816	0.731
x2 = 0.002249, x1 = 0.0005409	1.176	0.98	0.871	0.794	0.721
x2 = 0.002256, x1 = 0.001261	1.206	1.018	0.915	0.824	0.739
x2 = 0.002283, x1 = 0.0009035	1.203	1.001	0.891	0.804	0.726

CN(C)C=O + CC[n+]1ccn(C)c1.O=S(=O)([O-])C(F)(F)F
Details	viscosity [mPa·s]
298.15 K, 100 kPa, x1 = 1	0.81

Cn1cc[nH+]c1.[Cl-] + OCC(O)CO
100 kPa, x1 = 0.333
Details	viscosity [mPa·s]
298.15 K	126.1
313.15 K	70.3
333.15 K	35

CCCC[n+]1ccn(C)c1.O=S(=O)([N-]S(=O)(=O)C(F)(F)F)C(F)(F)F + CC1CCC(=O)O1
100 kPa, frequency 0.01 MHz, x1 = 1
Details	electrical conductivity [S/m]
293.15 K	0.337
298.15 K	0.4
303.15 K	0.472
308.15 K	0.552
313.15 K	0.64
318.15 K	0.733
323.15 K	0.835

CCCCn1cc[n+](CCOCC[n+]2ccn(CCCC)c2)c1.O=S(=O)([N-]S(=O)(=O)C(F)(F)F)C(F)(F)F.O=S(=O)([N-]S(=O)(=O)C(F)(F)F)C(F)(F)F + CC[n+]1ccn(C)c1.N#C[N-]C#N + O=S(=O)([N-]S(=O)(=O)C(F)(F)F)C(F)(F)F.[Li+]
100 kPa, x1 = 0.1503, x2 = 0.7472
Details	electrical conductivity [S/m]
298 K	0.512
303 K	0.654
313 K	0.829
323 K	1.11
333 K	1.45
343 K	1.84

CCCCCCCC(=O)[O-].CCCCCC[NH+](CCCCCC)CCCCCC + O
298.15 K, 101 kPa
Details	viscosity
x1 = 0.3915	15.08 mPa·s and 15.76 mPa·s
x1 = 0.7748	20.5 mPa·s and 21.52 mPa·s
